Data on 69 compounds can be found in PubChem BioAssay AID179 (DTP/NCI, 2004).

pEC50, pIC50: −log10 of the molar value. Active and inactive are the calls of the source.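 Rule for the calls: active = compounds giving half or more protection of infected cells from virus-caused growth loss, again on retest; inactive = the rest.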

By pEC50 is commonly meant the negative decadic logarithm of the EC50, by convention in mol/L. A word on the pIC50: it is the IC50 on a negative log10 scale, so that one unit is a factor of ten. A higher pIC50 goes with a low IC50.

The test system of this assay is CEM cells HIV-1 protection, formazan growth assay. The experiment in a line: NCI AIDS Antiviral Assay. The following applies: for pIC50: measured here: growth of uninfected CEM cells. In short, it runs like this:
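Screen of anti-HIV-1 activity in human CEM cells using a formazan-based growth measurement at five drug concentrations. Hits with 50% or greater protection were repeated, and confirmation required reproducible complete protection.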

With `[O-]/[N+]1=[N+](\[O-])c2ccccc2CCCc2ccccc21`, the pEC50 was below 3.57 and the pIC50 is below 3.57.
`Nn1c(CCCCCCCCc2nnc(-c3c(O)ccc4ccccc34)n2N)nnc1-c1c(O)ccc2ccccc12`: the pEC50 is below 3.70 and the pIC50 was below 3.70.
On to `N#Cc1ccc(/C=C/C(=O)c2ccccc2)cc1`, for which the pEC50 is below 4.51 and the pIC50 was 4.84.
The matching figures for `c1snnc1-c1cnns1`: below 3.70 and below 3.70.
With `CC(=O)Nc1ccc(NNc2cc(=O)n(C)c(=O)[nH]2)cc1`, the pEC50 is below 3.70 and the pIC50 is 5.62.
The matching figures for `Cc1c(O)c(OC2OC(CO)C(O)C(O)C2O)cc2c1CC[C@@H]1C2(C)C(=O)C[C@]2(C)[C@@H]([C@@](C)(O)C(O)/C=C/C(C)(C)O)[C@H](O)C[C@@]12C` (stereo partly specified): below 3.70 and below 3.70.
Take `CCSCCCCCCCCCCC(=O)OCC1OC(n2cc(C)c(=O)[nH]c2=O)CC1O` (stereo unspecified): the pEC50 is below 4.25 and the pIC50 was 4.58.
The matching figures for `NC(=O)N/N=C\CC(O)(C(F)(F)Cl)C(F)(F)Cl`: below 3.70 and below 3.70.
The matching figures for `O=c1[nH]c2ccccc2c(O)c1CCCC1CCCCC1`: below 3.70 and 3.88.
The matching figures for `CNC(=O)OCc1nc(N=[N+]=[N-])n(C)c1COC(=O)NC`: below 3.70 and 4.37.
On to `CCCCCCCCCCCCCCCCOP(=O)(O)OP(=O)(O)OCC1OC(n2ccc(N)nc2=O)CC1O` (stereo unspecified), for which the pEC50 was below 4.00 and the negative logarithm of the IC50 (pIC50) is below 4.00.
On to `COc1ccc(C(=O)/C=C/c2ccncc2)cc1OC`, for which the pEC50 was below 3.70 and the negative-log IC50 (pIC50) is 5.52.
Consider `CC(C)C1NC(=O)C(Cc2ccccc2)NC(=O)C2NC(=O)C(Cc3ccccc3)NC(=O)C3CCCN3C(=O)CNC(=O)C(Cc3ccccc3)NC(=O)C3CNCCCCC(C(=O)O)NC(=O)C4NC(=O)C(CC(N)=O)NC(=O)CNC(=O)C(C(O)C(=O)O)NC(=O)C(CSCC(NC(=O)C(CCC(N)=O)NC(=O)C(CCCNC(=N)N)NC(=O)C(N)CSC4C)C(=O)NC(CSC2C)C(=O)N3)NC1=O` (stereo unspecified), for which the result was active.
Take `CC(=O)OC(C)(C)/C=C/C(=O)[C@](C)(O)[C@H]1[C@H](O)C[C@@]2(C)[C@@H]3CC=C4[C@@H](C=C(OC5OC(CO)C(O)C(O)C5O)C(=O)C4(C)C)[C@]3(C)C(=O)C[C@]12C` (stereo partly specified): the pEC50 was below 3.70 and the pIC50 was 5.01.
As for `COc1ccccc1C1c2cc3c(cc2OC(N2CCOCC2)C1C)OCO3` (stereo unspecified), the pEC50 was below 3.70 and the pIC50 was 4.80.
The matching figures for `CCOc1ccc(N(CC(=O)N2CC(=O)Nc3cc(C)c(C)cc32)C(C)=O)cc1`: below 4.88 and below 4.88.
The matching figures for `NC1CCCCC1NCCNC1CCCCC1N` (stereo unspecified): below 3.70 and 3.75.
The matching figures for `Cc1ccc2nc3c(Cl)c(C)c(=O)cc-3sc2c1`: below 4.87 and below 4.87.
Regarding `Cc1ccc(S(=O)(=O)N/N=C(/c2ccccc2)c2ccsc2C)cc1`, the pEC50 is below 3.70 and the pIC50 is 4.53.
The matching figures for `CC(=O)O[C@]12CCCCC1C1(O)C(O)CCCC[C@H]12` (stereo partly specified): below 3.70 and below 3.70.
The matching figures for `O=c1c2ccccc2oc2cc([N+](=O)[O-])cc([N+](=O)[O-])c12`: below 5.30 and 5.38.
The matching figures for `O=C1OCCOCCOCCOCCOCCOCCOC(=O)c2cccc1n2`: below 3.97 and 4.25.
Regarding `NC(CSS(=O)(=O)O)=NCCCCOc1ccccc1`, the pEC50 was below 3.70 and the pIC50 was 4.04.
The matching figures for `Cc1cc(O)c2c(c1)C(=O)C(c1c(C)cc3c(c1O)C(=O)C1OC1C3=O)=CC2=O` (stereo unspecified): below 3.76 and 7.03.
With `CCCS(=N)(=O)CCC(N)C(=O)O` (stereo unspecified), the pEC50 is below 3.70 and the pIC50 is below 3.70.
For the compound `Cc1nn2c(=O)c([N+](=O)[O-])c(/C=C/c3ccco3)nc2s1`, the pEC50 is below 3.70 and the pIC50 is 4.34.
Consider `CCc1n[nH]c(=O)n1/N=C/c1c(O)ccc2ccccc12`, for which the pEC50 is below 3.70 and the pIC50 was below 3.70.
Consider `Cc1ccsc1/C=N/Nc1ccc2ccccc2n1`, for which the pEC50 is below 3.70 and the pIC50 is 4.73.
As to `COC[C@H](C)N=CN1CCc2ccccc2C1(Cc1ccccc1)Cc1ccccc1`, the pEC50 was below 4.48 and the pIC50 was below 4.48.
As to `O=C(Cn1c(-c2ccccc2)cc2ccccc21)N1CCCC1`, the pEC50 is below 3.70 and the pIC50 was 3.90.
As to `C#C[C@@]1(O)CCCC2=CC(=O)C[C@]21C`, the result was inactive.
As for `Cc1nc2cc[nH]n2c(=O)c1CCc1ccccc1`, the pEC50 was below 3.70 and the pIC50 was 3.82.
The matching figures for `CN1S(=O)(=O)N(C)P12(N=P(CP(=NP13(N(C)S(=O)(=O)N1C)N(C)S(=O)(=O)N3C)(c1ccccc1)c1ccccc1)(c1ccccc1)c1ccccc1)N(C)S(=O)(=O)N2C`: below 4.15 and below 4.15.
For `N#C/C1=C(\N)CCSSSC1`, the pEC50 is below 3.34 and the negative-log IC50 (pIC50) was 4.64.
The matching figures for `c1ccc(CN(Cc2ccccn2)Cc2ccccn2)nc1`: below 3.70 and 5.50.
The matching figures for `Cc1cc(N(CCC#N)CCC#N)ccc1/C=C1N=C(/C=C\c2ccccc2)N(c2ccc(C(=O)O)cc2)C\1=O`: below 4.87 and below 4.87.
The matching figures for `COC(=O)c1cc(=O)n(-c2ccc3nn(C)nc3c2)cc1C(=O)OC`: below 3.70 and below 3.70.
With `CC(CC(=O)N(C)[C@H](C[C@@H](C)C(Cl)(Cl)Cl)c1nccs1)C(Cl)(Cl)Cl` (stereo partly specified), the result was inactive.
For the compound `COc1cc2c(cc1OC)C1Cc3ccccc3CCN1CC2` (stereo unspecified), the pEC50 is below 3.70 and the pIC50 is 3.90.
The matching figures for `O/N=C(/C(Cl)=C(Cl)Cl)C(Cl)Cl`: below 3.70 and 4.48.
The matching figures for `CN(C)N1C(=O)c2c(Cl)c(Cl)c(Cl)c(Cl)c2C1=O`: below 3.70 and 4.04.
The matching figures for `Brc1ccc2c(c1)C1C(CO2)C(c2ccccc2)=NN1c1ccccc1` (stereo unspecified): below 4.19 and below 4.19.
For the compound `COc1cccc(C2CC(=O)c3cccn32)c1` (stereo unspecified), the result was inactive.
Regarding `COc1ccc(C(=C(I)c2ccccc2)c2ccc(OC)cc2)cc1`, the pEC50 is below 3.70 and the negative logarithm of the IC50 (pIC50) is 3.74.
The matching figures for `COc1cccc(C2c3cc4c(cc3OC(NNS(=O)(=O)c3ccc(C)cc3)C2C)OCO4)c1O` (stereo unspecified): below 3.70 and 4.98.
On to `O=C1C(Cl)N(c2ccc(Cl)cc2)C1c1c[nH]c2ccccc12` (stereo unspecified), for which the pEC50 was below 3.69 and the pIC50 was 5.29.
`CC12NC(=C(C#N)C#N)C(C#N)=C3NC(N)=C(C#N)C(=C31)Oc1ccccc12` (stereo unspecified): the pEC50 was below 3.70 and the pIC50 was 5.23.
The matching figures for `O=C1c2ccccc2C(=O)C1(Cl)C(Cl)c1ccc([N+](=O)[O-])cc1` (stereo unspecified): below 3.70 and 4.92.
In the case of `COc1ccc2c(-c3ccc(O)cc3)c(Oc3ccccc3)c(=O)oc2c1`, the outcome was inactive.
As to `NCCN(CCN(C(=O)Nc1ccccc1)c1ccccc1)C(=O)Nc1ccccc1`, the pEC50 is below 3.70 and the pIC50 was 4.45.
The matching figures for `O=S(=O)(Nc1ccccc1Cl)c1ccccc1`: below 3.70 and 4.08.
The matching figures for `CC(=O)c1ccc(NC(=O)C(=O)Nn2c(=S)[nH]c3ccccc3c2=O)cc1`: below 4.03 and below 4.03.
With `N#CC(C(=O)/C(=N/Nc1nc(=S)[nH]n1N)C(C#N)c1ccccc1)c1ccccc1` (stereo unspecified), the pEC50 was below 4.76 and the pIC50 was below 4.76.
Consider `CC[C@@]1(C[C@H]2C[C@@]3(C(=O)OC)c4[nH]c5ccccc5c4CCN3C2=S)COC2(CCCCC2)O1`, for which the pEC50 is below 3.70 and the pIC50 was below 3.70.
In the case of `CC1(C)C=C(S(=O)(=O)c2ccccc2)Oc2ccccc2O1`, the pEC50 was below 3.70 and the pIC50 is 3.88.
`CCOC(=O)Nc1nc2ccccc2[nH]1`: the pEC50 is below 3.70 and the pIC50 was 4.95.
The matching figures for `OCC(O)CNc1ccnc2cc(Cl)ccc12` (stereo unspecified): below 3.20 and 3.93.
As for `C=CCCCCCCCCCP(=O)(c1ccccc1)c1ccc2c(c1)OCCOCCOCCOCCO2` (stereo unspecified), the pEC50 was below 3.70 and the pIC50 was 5.77.
As to `CSc1nnc(C(C#N)C#N)nn1`, the outcome was inactive.
`CCCNC(=O)N1CC(CN2CCN(c3ccccc3)CC2)O/C1=N/C(=O)Nc1ccccc1` (stereo unspecified): the pEC50 is below 3.70 and the pIC50 is 4.11.
The matching figures for `O=[N+]([O-])C(C=Nc1ccccc1)C=Nc1ccccc1` (stereo unspecified): below 3.70 and 3.97.
The matching figures for `COc1cc(C2C3=C(CCCC3=O)N(c3ccc(C)cc3)C3=C2C(=O)CCC3)c([N+](=O)[O-])cc1OC`: below 3.70 and 3.84.
For `O=C(CC(=O)CC(O)(C(F)(F)F)C(F)(F)F)CC(O)(C(F)(F)F)C(F)(F)F`, the pEC50 is below 3.70 and the negative-log IC50 (pIC50) is 4.98.
Consider `CC1(C)OC(C[C@]2(C#N)C[C@H](CCl)OC(C)(C)O2)C[C@@H](C[C@]2(C#N)C[C@H](CCl)OC(C)(C)O2)O1` (stereo partly specified), for which the pEC50 was below 3.70 and the pIC50 is 4.17.
For the compound `O=S(=O)(C1=CC(S(=O)(=O)c2ccccc2)COC1)c1ccccc1` (stereo unspecified), the outcome was inactive.
For `O=C(CCCN1CCC(C(=O)c2ccc(F)cc2)CC1)c1ccc(F)cc1`, the pEC50 was below 4.61 and the pIC50 is below 4.61.
As for `O=C(O)c1cc(-c2ccccc2)c(-c2ccccc2)cc1C(c1ccccc1)c1ccccc1`, the pEC50 is below 3.70 and the pIC50 was 4.55.
`Nn1c(=S)[nH]n2cnnc12`: the pEC50 was below 2.80 and the pIC50 is 3.73.
The matching figures for `CO/C(=N\N=C\c1ccc(Cl)cc1Cl)c1ccncc1`: below 4.66 and below 4.66.
